Several values for one entry are separate records, joined by “and”; a condition that tells them apart may be missing. Equal values may be shown once. Records with an inconclusive call do not appear.
System: MX-1 breast xenograft, nude mice, tumor weight T/C
Experiment: NCI In Vivo Anticancer Drug Screen. Data for tumor model Human Mammary Carcinoma MX-1 Xenograft (intrarenal inoculation) in NU/NU Swiss (nude) mice
Details: endpoint: mean tumor weight change, higher = larger tumour
How it was run: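 Tumor-bearing mice were treated with test compound alongside a vehicle-treated control group. Survival or tumor size was measured, and activity is expressed as the treated-group value divided by the control-group value.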

[1] = dose: 300.0 mg/kg/injection, schedule: Q04DX003 (sc), vehicle: saline with Tween-80
[2] = dose: 600.0 mg/kg/injection, schedule: Q04DX003 (sc), vehicle: saline with Tween-80
[3] = dose: 1200.0 mg/kg/injection, schedule: Q04DX003 (sc), vehicle: saline with Tween-80
[4] = dose: 2400.0 mg/kg/injection, schedule: Q04DX003 (sc), vehicle: saline with Tween-80
[5] = dose: 200.0 mg/kg/injection, schedule: Q01DX010 (sc), vehicle: saline
[6] = dose: 400.0 mg/kg/injection, schedule: Q01DX010 (sc), vehicle: saline
[7] = dose: 100.0 mg/kg/injection, schedule: Q04DX003 (sc), vehicle: saline
[8] = dose: 200.0 mg/kg/injection, schedule: Q04DX003 (sc), vehicle: saline

In the case of `[I][Hg][CH2]C1COC([CH2][Hg][I])CO1` (configuration not stated), the T/C [1] is reported as 86 % of control, the T/C [2] is reported as 77 % of control and the T/C [3] is reported as 115 % of control. For the same molecule, the T/C [4] was 82 % of control.

In the case of `O=c1cnn(C2OC(CO)C(O)C2O)c(=O)[nH]1` (configuration not stated), the T/C [5] is reported as 79 % of control and the T/C [6] is reported as 77 % of control.

`Nc1ncnc2c1ncn2C1OC(CO)C(O)C1O` (configuration not stated) was tested, and the T/C (dose: 38.0 mg/kg/injection, schedule: Q04DX003 (sc), vehicle: saline) was 84 % of control, the T/C [7] was 120 % of control and the T/C (dose: 200.0 mg/kg/injection, schedule: Q04DX003 (sc), vehicle: saline with Tween-80) was 100 % of control. For the same molecule, the T/C [8] was 72 % of control and 85 % of control, the T/C (dose: 400.0 mg/kg/injection, schedule: Q04DX003 (sc), vehicle: saline with Tween-80) was 84 % of control and the T/C (dose: 400.0 mg/kg/injection, schedule: Q04DX003 (sc), vehicle: saline) was 91 % of control. The T/C (dose: 800.0 mg/kg/injection, schedule: Q04DX003 (sc), vehicle: saline with Tween-80) was 217 % of control, the T/C (dose: 1600.0 mg/kg/injection, schedule: Q04DX003 (sc), vehicle: saline with Tween-80) was 104 % of control and the T/C (dose: 1600.0 mg/kg/injection, schedule: Q04DX003 (sc), vehicle: saline) was 52 % of control.

For `COC1=C(OC)C(=O)C(C/C=C(\C)CC/C=C(\C)CC/C=C(\C)CC/C=C(\C)CC/C=C(\C)CC/C=C(\C)CC/C=C(\C)CC/C=C(\C)CC/C=C(\C)CCC=C(C)C)=C(C)C1=O`, the T/C (dose: 400.0 mg/kg/injection, schedule: Q01DX010 (sc), vehicle: saline with Tween-80) was 153 % of control and the T/C (dose: 800.0 mg/kg/injection, schedule: Q01DX010 (sc), vehicle: saline with Tween-80) was 118 % of control.

With `CC[As](=O)(O)CC` the T/C [7] was 96 % of control and the T/C [8] was 88 % of control.

For `Cc1ccccc1N(CC1CO1)CC1CO1` (configuration not stated), the T/C (dose: 50.0 mg/kg/injection, schedule: Q01DX010 (sc), vehicle: saline) was 54 % of control, the T/C (dose: 100.0 mg/kg/injection, schedule: Q01DX010 (sc), vehicle: saline) was 91 % of control and the T/C [5] was 89 % of control. For the same molecule, the T/C [6] was 56 % of control and the T/C (dose: 800.0 mg/kg/injection, schedule: Q01DX010 (sc), vehicle: suspension in saline) was 111 % of control.

For `O=c1s[se]c2ccccc12`, the T/C (dose: 150.0 mg/kg/injection, schedule: Q04DX003 (sc), vehicle: Klucel (hydroxypropylcellulose) (HPC)) was 55 % of control and the T/C (dose: 300.0 mg/kg/injection, schedule: Q04DX003 (sc), vehicle: Klucel (hydroxypropylcellulose) (HPC)) was 55 % of control.

`CONc1ccn(C2OC(CO)C(O)C2O)c(=O)n1` (configuration not stated) was tested, and the T/C (dose: 300.0 mg/kg/injection, schedule: Q04DX003 (sc), vehicle: saline) was 86 % of control, the T/C (dose: 600.0 mg/kg/injection, schedule: Q04DX003 (sc), vehicle: saline) was 74 % of control and the T/C (dose: 1200.0 mg/kg/injection, schedule: Q04DX003 (sc), vehicle: saline) was 107 % of control. The T/C (dose: 2400.0 mg/kg/injection, schedule: Q04DX003 (sc), vehicle: saline) was 77 % of control.

For `COc1nc(=O)n(C2C=CC(=O)O2)cc1F` (configuration not stated), the T/C (dose: 75.0 mg/kg/injection, schedule: Q04DX003 (sc), vehicle: Klucel (hydroxypropylcellulose) (HPC)) was 116 % of control.

For `CC(=O)OCC1OC(n2cc(CBr)nn2)C(OC(C)=O)C(OC(C)=O)C1OC(C)=O` (configuration not stated), the T/C (dose: 12.5 mg/kg/injection, schedule: Q01DX010 (sc), vehicle: saline with Tween-80) was 106 % of control, the T/C (dose: 25.0 mg/kg/injection, schedule: Q01DX010 (sc), vehicle: saline with Tween-80) was 117 % of control and the T/C (dose: 50.0 mg/kg/injection, schedule: Q01DX010 (sc), vehicle: saline with Tween-80) was 117 % of control.

For `COc1ccc(C(=O)c2no[n+]([O-])c2C(=O)c2ccc(OC)cc2)cc1`, the T/C [1] was 121 % of control, the T/C [2] was 91 % of control and the T/C [3] was 66 % of control. The T/C [4] was 88 % of control.

In the case of `CC(=O)OCC1OC(OC(C)=O)C(NC(=O)N(CCCl)N=O)C(OC(C)=O)C1OC(C)=O` (configuration not stated), the T/C (dose: 6.0 mg/kg/injection, schedule: Q04DX003 (sc), vehicle: Klucel (hydroxypropylcellulose) (HPC)) is reported as 95 % of control and the T/C (dose: 24.0 mg/kg/injection, schedule: Q04DX003 (sc), vehicle: Klucel (hydroxypropylcellulose) (HPC)) is reported as 77 % of control.

With `CCCC(=O)Nc1ncnc2c1ncn2C1OC2COP(=O)(O)OC2C1OC(=O)CCC` (configuration not stated) the T/C [5] was 159 % of control and the T/C [6] was 124 % of control.

From PubChem BioAssay AID296 (DTP/NCI, 2004)
